We go through eleven compounds from US7112598B2, “κ opioid receptor agonist comprising 2-phenylbenzothiazoline derivative” (Santen Pharmaceutical Co., Ltd., priority 2002, dated 2006).

Where a name gives a salt, the structure may show the parent alone.

Chain of human κ opioid receptor (P41145 whole entry): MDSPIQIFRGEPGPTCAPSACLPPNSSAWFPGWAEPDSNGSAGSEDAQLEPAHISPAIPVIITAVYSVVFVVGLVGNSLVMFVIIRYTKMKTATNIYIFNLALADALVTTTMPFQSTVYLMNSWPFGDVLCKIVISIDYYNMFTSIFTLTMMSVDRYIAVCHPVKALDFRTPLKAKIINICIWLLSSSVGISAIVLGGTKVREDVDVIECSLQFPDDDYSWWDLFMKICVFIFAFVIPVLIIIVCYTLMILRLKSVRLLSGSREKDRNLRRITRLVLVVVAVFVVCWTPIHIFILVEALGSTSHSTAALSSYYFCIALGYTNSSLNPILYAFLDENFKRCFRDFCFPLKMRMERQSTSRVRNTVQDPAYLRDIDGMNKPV

The target of the first assay is human κ opioid receptor (Homo sapiens, UniProt P41145). Description: κ opioid receptor agonist activity test in GTP binding activity measurement system ([35S]GTPγS binding). The format is biochemical. To be noted: test compound concentration 10^−9 M; binding of 10^−6 M (−)-U50488 = 100%; human κ opioid receptor membrane preparation; average of duplicate. The method, then:
1. κ Opioid Receptor Agonist Activity Tests in GTP Binding Activity Measurement System
Jinmin Zhu et al. reported a method of evaluating agonist activities of drugs on a κ opioid receptor wherein guanosine 5′-triphosphate (GTP) radiolabelled with a human κ opioid receptor is used in J. Pharmaco. Exp. Ter., 282, 676–684 (1997). κ opioid receptor agonist activities (actions) of test compounds were evaluated according to the method described in the above-mentioned literature.
N-2-Hydroxyethylpiperazine-N′-2-ethanesulfonic acid (HEPES, 4.77 g), magnesium chloride hexahydrate (2.03 g), sodium chloride (5.84 g), disodium […] (EDTA•2Na, 0.37 g), DL-dithiothreitol (DTT, 0.15 g) and bovine serum albumin (BSA, 1.0 g) were dissolved in ultrapure water, pH was adjusted to 7.4 with sodium hydroxide, and further ultrapure water was added to the mixture so that a total amount was one liter to prepare a incubation buffer.
Nine volume of the incubation buffer was added to one volume of dimethyl sulfoxide (DMSO) to prepare a 10% DMSO-incubation buffer.
Tris(hydroxymethyl)aminomethane hydrochloride (TRIZA-HCl, 66.1 g) and Tris(hydroxymethyl)aminomethane (TRIZA-Base, 9.7 g) were dissolved in ultrapure water so that a total amount was 10 liters to prepare a 50 mM Tris-hydrochloric acid buffer (pH 7.4).
A human κ opioid receptor membrane preparation (100 unit/ml) was diluted 60 times with the incubation buffer under ice-cold to prepare a human κ opioid receptor membrane preparation solution. The membrane preparation solution was preserved under ice-cold.
A test compound was dissolved in 100% DMSO to prepare a 10^−3 M test compound solution, and then the incubation buffer was added to the 10^−3 M test compound solution to prepare a 10^−4 M test compound solution. Next, the 10% dimethyl sulfoxide-incubation buffer was added to the 10^−4 M test compound solution to prepare a 10^−5 M, 10^−6 M, 10^−7 M, 10^−8 M or 10^−9 M test compound solution.
A drug (−)-U50488 (J. Pharmacol. Exp. Ther., 224, 7–12 (1983)), which is known as a κ opioid receptor agonist, was used as a positive control drug in the tests.
(−)-U-50488 was dissolved in 100% DMSO to prepare a 10^−3 M positive control drug solution, and then the incubation buffer was added to the 10^−3 M positive control drug solution to prepare a 10^−4 M positive control drug solution. Next, the 10% DMSO-incubation buffer was added to the 10^−4 M positive control drug solution to prepare a 10^−6 M positive control drug solution.
GDP was dissolved in ultrapure water to prepare a 10^−3 M GDP solution, and the incubation buffer was added to the 10^−3 M GDP solution to prepare a 10^−5 M GDP solution.
10^−3 M [^35S]GTPγS was diluted with the incubation buffer to prepare 10^−9 M radiolabelled reagent.
• 1. The incubation buffer (50 μl), the 10^−5 M GDP solution (50 μl), the human κ opioid receptor membrane preparation solution (300 μl), the test compound solution and the 10^−9 M radiolabelled reagent (50 μl) were put into a glass tube, and then the mixture was incubated at 30° C. for 60 minutes. • 2. The 50 mM Tris-hydrochloric acid buffer (pH 7.4) was added to the mixture to stop the reaction, the reaction mixture was suction-filtered with a GF/B filter, and then the residue on the GF/B filter was washed with the 50 mM Tris-hydrochloric acid buffer (3 ml) three times. • 3. The GF/B filter was air-dried, and then the residue on the GF/B filter was taken out with an antomatic dispenser and transfered into a vial. • 4. Scintisol EX-H (5 ml) was introduced into the vial to prepare a sample solution, and then radioactivity in the sample solution was measured with a liquid scintillation counter for one minute. The radioactivity was expressed in “cpm” (counts per minute). Calculation Formula of κ Opioid Receptor Agonist Activity
Each agonist activity of the test compound on the κ opioid receptor was expressed in [^35S]GTPγS binding % when [^35S]GTPγS binding of 10^−6 M (−)-U50488 was 100%. […]
For orientation: GTPγS resists hydrolysis and so accumulates on activated G proteins.
Turning to `COc1ccc(OCCCN(C(C)C)C(C)C)c(C2Sc3cc(Cl)ccc3N2C(C)=O)c1` (single isomer, unassigned; (+)) [Compound No. 9-11, (+)-3-Acetyl-6-chloro-2-[2-(3-(N,N-diisopropylamino)propoxy)-5-methoxyphenyl]benzothiazoline Hydrochloride], the “[^35S]GTP γ S binding %” value is recorded as 55.0%.
The same measure, in the same setting: next, `COc1ccc(OCCCN(CCO)C(C)C)c(C2Sc3ccc(C(F)(F)F)cc3N2C(C)=O)c1` (centres unmarked) [Compound No. 4-2, 3-Acetyl-2-[2-(3-(N-(2-hydroxyethyl)-N-isopropylamino)propoxy)-5-methoxyphenyl]-5-trifluoromethylbenzothiazoline Hydrochloride]: 65.1%; `COc1ccc(OCCCN2CC[C@H](O)C2)c(C2Sc3cc(Cl)ccc3N2C(C)=O)c1` (stereo partly drawn) [Compound No. 3-14, 3-Acetyl-6-chloro-2-[2-(3-((3S)-hydroxyazolan-1-yl)propoxy)-5-methoxyphenyl]benzothiazoline Hydrochloride]: 59.8%; `COc1ccc(OCCCN(CCO)CC(C)C)c(C2Sc3cc(Cl)ccc3N2C(C)=O)c1` (centres unmarked) [Compound No. 3-11, 3-Acetyl-6-chloro-2-[2-(3-(N-(2-hydroxyethyl)-N-(2-methylpropyl)-amino)propoxy)-5-methoxyphenyl]benzothiazoline Hydrochloride]: 53.7%.
Turning to `COc1ccc(OCCCN(Cc2cccs2)C(C)C)c(C2Sc3cc(Cl)ccc3N2C(C)=O)c1` (single isomer, unassigned; (+)) [Compound No. 9-4, (+)-3-Acetyl-6-chloro-2-[2-(3-(N-isopropyl-N-(thiophen-2-ylmethyl)-amino)propoxy)-5-methoxyphenyl]benzothiazoline Hydrochloride], the “[^35S]GTP γ S binding %” value was 72.1%.
Take `CCN(CCCOc1ccc(OC)cc1C1Sc2cc(Cl)ccc2N1C(C)=O)C(C)C` (single isomer, unassigned; (+)) [Compound No. 9-10, (+)-3-Acetyl-6-chloro-2-[2-(3-(N-ethyl-N-isopropylamino)propoxy)-5-methoxyphenyl]benzothiazoline Hydrochloride]: the “[^35S]GTP γ S binding %” value was determined as 116.8%.
The same measure, in the same setting: next, `COc1ccc(OCCCN(CCO)C(C)C)c(C2Sc3ccccc3N2C(C)=O)c1` (single isomer, unassigned; (+)) [Compound No. 11-3, (+)-3-Acetyl-2-[2-(3-(N-(2-hydroxyethyl)-N-isopropylamino)-propoxy)-5-methoxyphenyl]benzothiazoline Hydrochloride]: 85.1%.

Staying with this assay, now noted: test compound concentration 10^−9 M; binding of 10^−6 M (−)-U50488 = 100%; human κ opioid receptor membrane preparation; average of duplicate; Hydrochloride.
`COc1ccc(OCCCN(Cc2ccco2)C(C)C)c(C2Sc3cc(Cl)ccc3N2C(C)=O)c1` (single isomer, unassigned; (+)) [Compound No. 9-5, (+)-3-Acetyl-6-chloro-2-[2-(3-(N-(furan-2-ylmethyl)-N-isopropylamino)propoxy)-5-methoxyphenyl]benzothiazoline Hydrochloride]: the “[^35S]GTP γ S binding %” value worked out at 132.5%.
`COCCN(CCCOc1ccc(OC)cc1C1Sc2cc(Cl)ccc2N1C(C)=O)C(C)C.Cl` (single isomer, unassigned; (-)) [Compound No. 10-1, (−)-3-Acetyl-6-chloro-2-[2-(3-(N-isopropyl-N-(2-methoxyethyl)amino)-propoxy)-5-methoxyphenyl]benzothiazoline Hydrochloride]: the “[^35S]GTP γ S binding %” value is reported as 50.5%.
With `COc1ccc(OCCCN(CCO)C(C)C)c(C2Sc3cc(Cl)ccc3N2C(C)=O)c1` (single isomer, unassigned; (-)) [Compound No. 10-2, (−)-3-Acetyl-6-chloro-2-[2-(3-(N-(2-hydroxyethyl)-N-isopropylamino)-propoxy)-5-methoxyphenyl]benzothiazoline Hydrochloride], the “[^35S]GTP γ S binding %” value amounted to 65.8%.

Staying with this assay, now noted: test compound concentration 10^−9 M; binding of 10^−6 M (−)-U50488 = 100%; human κ opioid receptor membrane preparation; average of duplicate; read-out: [^35S]GTP γ S binding %.
Turning to `COCCN(CCCOc1ccc(OC)cc1C1Sc2ccccc2N1C(C)=O)C(C)C` (centres unmarked) [Compound No. 8-1, 3-Acetyl-2-[2-(3-(N-isopropyl-N-(2-methoxyethyl)amino)propoxy)-5-methoxyphenyl]benzothiazoline Hydrochloride], the activation at 0.001 µM turned out to be 103%.
